Entries after “also recorded” stand apart in the source; their conditions may differ. Like-named read-outs stand apart in the source and are kept apart here. Bridge positions count the residues as written; N and C are the ends. Peptide text beside a SMILES is read from it.
Assays:
FcRn [1] = molecular target: T1, FcRn (Homo sapiens, UniProt P55899); experiment: Competition for albumin or IgG binding to FcRn; set-up: Soluble human FcRn was expressed and purified by Biogen-Idec as previously described (29)
Excerpt: Peptide phage libraries, obtained from Dyax Corp, were screened against biotinylated soluble human FcRn bound to streptavidin beads, using 3 rounds of sequential pH 6.0 binding and pH 7.5 elution/amplification protocols. […] Peptide SYN514 was utilized during a 2nd peptide phage screen to occupy this site on FcRn prior to the addition of the phage libraries, and to identify albumin-competitive sequences. This strategy uncovered the albumin-competitive peptide, SYN571, and through structure-activity relationships, the shorter sequence SYN1753 (Ac-[…]-CONH2 (SEQ ID NO: 1) (disulfide) which bound to shFcRn with equivalent affinity as determined by SPR.

shFcRn binding to HSA = shFcRn binding to HSA (Homo sapiens, UniProt P55899); experiment: SPR screening of FcRn binding peptides for inhibition of shFcRn binding to immobilized HSA; conditions: 14 uM peptide, 5 uM shFcRn, pH 6
Experimental: Unreacted sites were then capped by injecting a solution of ethanolamine over the chip surface. A reference flow cell was activated with EDC/NHS and then blocked with ethanolamine.
Samples were injected over the chip for 3 minutes at 20 uL/min followed by a 2.5 minute dissociation phase.

FcRn [2] = molecular target: T1, FcRn; conditions: Mezo, PNAS, 2007; cited from earlier work
soluble human FcRn = molecular target: T2, soluble human FcRn (Homo sapiens, UniProt P55899); experiment: SPR (Biacore) affinity of peptides for immobilized soluble human FcRn; type: binding; conditions: pH 6.0
T2 construct: Soluble human FcRn was expressed and purified by Biogen-Idec as previously described (29)
Method in brief: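 FcRn amine-coupled to CM5 chip; binding run at pH 6.0 or 7.4 in 50 mM phosphate, 100 mM NaCl, 0.01% P20, with 5-minute dissociation and pH 8.0 Tris regeneration. KD derived from sensorgrams with a 1:1 binding model; end-of-association responses plotted versus concentration.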

[3] = system: MDCK II cells expressing hFcRn and hβ2m; experiment: FcRn dependent albumin transcytosis bioassay; type: cell-based, canine; conditions: input chamber pH 6.0, exit pH 7.4, 2 hours, compared to scrambled peptide or isotype control
Experimental: Albumin transcytosis assays were performed as previously described for IgG. In brief, MDCK II cells expressing hβ2m and hFcRn were grown to confluence on transwells (Costar) and allowed to polarize over 4 days. 12 hours before the transcytosis experiment, the medium was changed to serum-free media without antibiotics. On the day of experiment, the transwells were incubated with HBSS pH 7.4 for 20 minutes before placing on a new 12 well plate (Costar) where the input chamber contains HBSS pH 6.0 and the exit chamber contains HBSS pH 7.4 and pH adjusted albumin was added to the input chamber afterwards. For blocking albumin transcytosis with the peptide inhibitors SYN1753 and SYN3258, transwells were pre-incubated for 20 min with the respective peptides in HBSS pH 6.0 prior to the addition of albumin in the continued presence of the peptides. After incubating for 2 hours in 37° C. and 5% CO2, the medium at the opposite chamber were harvested and the albumin concentration was measured using ELISA method. For the recycling assay, the transwells were washed with HBSS pH 7.4 for 5 minutes before placing on a new 12-well plate with HBSS pH 6.0 at both chambers. After equilibration at 37° C. and 5% CO2, pH adjusted albumin human albumin was added and allowed to incubate for one hour. The transwells were then washed at HBSS pH 6.0 before placing in a new 12-well plate with HBSS pH 7.4 at both chambers. After one hour incubation, medium from the input chamber was removed and the albumin concentration was measured by ELISA. For the human albumin secretion assay the medium was changed to serum- and antibiotic-free media on the day of the experiment. 50 μL of the medium from both chambers were removed periodically over 24 hours, and the human albumin concentration was measured using ELISA with volume reduction adjustment.

[4] = system: hFCGRT^Tg/hB2m^Tg/mFcgrt^−/− mice; experiment: In vivo acetaminophen toxicity with blockade of FcRn-albumin interaction; set-up: species or system mouse; conditions: 40 mg/kg body weight per day via i.p. osmotic pump; vs control peptide
Experimental: In vivo acetaminophen toxicity experiments: Acetaminophen (Sigma-Aldrich) was diluted in PBS at a concentration of 33.3 mg/ml. […] In blocking experiments using antibody administration, ADM31 or isotype control were administered 14 h prior to the injection of APAP. For blocking the interaction between FcRn and albumin via peptide, a cyclic control peptide for SYN3258 was designed in which three key residues per monomer that were identified by alanine screening to be critical for binding between FcRn and albumin were mutated to alanines (W7A, W11A, […]). SYN3258 or the control peptide were then continuously administered at a dose of 40 mg/kg body weight per day via i.p. osmotic pumps (Alzet, Cupertino, Cat. No 1003D) over a 72 hour period. Prior to the surgical implantation of the pumps, mice were anaesthetized with Buprenex (0.1 mg/kg body weight) s.c. and Ketamine HCl (100 mg/kg)/Xylazine (10 mg/kg) i.p. Hair on the incision site was clipped and the implantation area was disinfected by 5% iodine in 70% isopropanol. Antibiotics (100 μg/ml of gentamycin) were sprayed on the area of incision to prevent infection, and skin was sutured using polypropylene suture. Total duration of the surgical procedure was around 5 minutes per mouse. 18-20 hours after pump implantation, a lethal dose of acetaminophen was administered i.p.

[5] = read-out: affinity for FcRn by SPR

T1 sequence (P55899 24-297 limits assumed): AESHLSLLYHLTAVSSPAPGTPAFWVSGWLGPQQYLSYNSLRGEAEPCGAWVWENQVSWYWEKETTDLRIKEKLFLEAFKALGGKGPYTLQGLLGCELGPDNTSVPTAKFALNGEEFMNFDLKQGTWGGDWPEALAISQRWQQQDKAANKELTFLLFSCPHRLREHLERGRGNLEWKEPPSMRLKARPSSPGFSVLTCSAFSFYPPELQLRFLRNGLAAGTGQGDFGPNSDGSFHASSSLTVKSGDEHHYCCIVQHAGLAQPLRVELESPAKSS
T1 sequence (P61769 21-119 partner): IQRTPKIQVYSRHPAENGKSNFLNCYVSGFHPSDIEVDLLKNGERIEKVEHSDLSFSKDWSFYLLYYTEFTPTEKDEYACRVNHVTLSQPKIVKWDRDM
T2 sequence (P55899 24-297 limits assumed): as the sequence (P55899 24-297 limits assumed) above
T2 sequence (P61769 21-119 partner): as the sequence (P61769 21-119 partner) above
Sequence of shFcRn binding to HSA (P55899 24-297 limits assumed): as the sequence (P55899 24-297 limits assumed) above
Sequence of shFcRn binding to HSA (P61769 21-119 partner): as the sequence (P61769 21-119 partner) above

Row | Structure (SMILES) | Competition for albumin or IgG binding to FcRn (FcRn [1]; Table 3) | competition with IgG or albumin for the FcRn binding site (FcRn [1]; competition experiments / SPR) | block of shFcRn binding to immobilized HSA (shFcRn binding to HSA) | block of IgG binding to hFcRn (FcRn [2]) | Kd (soluble human FcRn; Table 3, read-out: Kd, pH 6.0 (Biacore μM)) [µM] | Kd (soluble human FcRn; [5]) [µM] | transcytosis of human albumin [3] | protection from liver injury (serum ALT) after lethal dose of APAP [4] | survival rate after lethal dose of APAP [4] | transcytosis of human albumin ([3]; listed as Syn3258)
1 | CC(=O)N[C@@H](CCCNC(=N)N)C(=O)N[C@@H](Cc1ccccc1)C(=O)N[C@@H]1C(=O)N[C@@H]([C@@H](C)O)C(=O)NCC(=O)N[C@@H](Cc2c[nH]cn2)C(=O)N[C@@H](Cc2ccccc2)C(=O)NCC(=O)N(C)CC(=O)N(C)[C@@H](CC(C)C)C(=O)N[C@@H](Cc2ccc(O)cc2)C(=O)N2CCC[C@H]2C(=O)N[C@H](C(N)=O)CSSC1(C)C [SYN1327, Ac-RF-Pen-TGHFG-Sar-NMeLeu-YPC-CONH2, reference compound] | IgG | competes for binding of IgG | not able to compete for HSA binding | block the binding of IgG to hFcRn |  |  |  |  |  | 
2 | CC(=O)N[C@@H](CCCNC(=N)N)C(=O)N[C@@H](Cc1ccc(O)cc1)C(=O)N[C@@H](Cc1ccccc1)C(=O)N[C@H]1CSSC[C@@H](C(=O)N[C@@H](CCC(=O)O)C(=O)N[C@@H](CCC(=O)O)C(=O)N[C@H](C(=O)NCC(=O)N[C@H](C(N)=O)[C@@H](C)O)C(C)C)NC(=O)[C@H](Cc2c[nH]c3ccccc23)NC(=O)CNC(=O)[C@H](Cc2c[nH]cn2)NC(=O)[C@H](CCCCN)NC(=O)[C@H](Cc2c[nH]c3ccccc23)NC(=O)[C@H](CCCCN)NC(=O)[C@H]([C@@H](C)O)NC1=O [SYN1753] |  |  |  |  | 0.5 | ~0.5 | capable of blocking transcytosis of human albumin; also recorded: significantly reducing |  |  | 
3 | CC(=O)N[C@@H](CCCNC(=N)N)C(=O)N[C@@H](Cc1ccc(O)cc1)C(=O)N[C@@H](Cc1ccccc1)C(=O)N[C@H]1CSSC[C@@H](C(=O)N[C@@H](CCC(=O)O)C(=O)N[C@@H](CCC(=O)O)C(=O)N[C@H](C(=O)NCC(=O)N[C@H](C(=O)NCC(=O)NCC(=O)NCC(=O)N[C@@H](CCCNC(=N)N)C(=O)N[C@@H](Cc2ccc(O)cc2)C(=O)N[C@@H](Cc2ccccc2)C(=O)N[C@H]2CSSC[C@@H](C(=O)N[C@@H](CCC(=O)O)C(=O)N[C@@H](CCC(=O)O)C(=O)N[C@H](C(=O)NCC(=O)N[C@H](C(N)=O)[C@@H](C)O)C(C)C)NC(=O)[C@H](Cc3c[nH]c4ccccc34)NC(=O)CNC(=O)[C@H](Cc3c[nH]cn3)NC(=O)[C@H](CCCCN)NC(=O)[C@H](Cc3c[nH]c4ccccc34)NC(=O)[C@H](CCCCN)NC(=O)[C@H]([C@@H](C)O)NC2=O)[C@@H](C)O)C(C)C)NC(=O)[C@H](Cc2c[nH]c3ccccc23)NC(=O)CNC(=O)[C@H](Cc2c[nH]cn2)NC(=O)[C@H](CCCCN)NC(=O)[C@H](Cc2c[nH]c3ccccc23)NC(=O)[C@H](CCCCN)NC(=O)[C@H]([C@@H](C)O)NC1=O [SYN3258] (Ac-RYFCTKWKHGWCEEVGTGGGRYFCTKWKHGWCEEVGT-NH2; disulfide 4-12, 24-32) |  |  |  |  |  | 0.0036 | capable of blocking transcytosis of human albumin; also recorded: inhibit FcRn-directed transcytosis of albumin | conferred protection from liver injury | improve the survival rate | significantly reducing

— patent US10588935B2, “FC receptor (FcRn) binding peptides and uses thereof” (THE BRIGHAM AND WOMEN'S HOSPITAL, INC., priority 2013, dated 2020)
